From patent publication US9695165B2, “Inhibitors of the fibroblast growth factor receptor” (BLUEPRINT MEDICINES CORPORATION, priority 2014, dated 2017)

What was measured:
wild type FGFR-4 = wild type FGFR-4 (Homo sapiens (Human), UniProt P22455); test: FGFR-4 wild type assay at Km (Caliper electrophoretic mobility shift); type: biochemical; settings: wild type FGFR-4, 400 uM ATP, 25 C, 90 minutes; read-out: FGFR4 IC50
Method: In order to assess the activity of chemical compounds against the relevant kinase of interest, the Caliper LifeSciences electrophoretic mobility shift technology platform is utilized. Fluorescently labeled substrate peptide is incubated in the presence of dosed levels of compounds, a set concentration of kinase and of ATP, so that a reflective proportion of the peptide is phosphorylated. At the end of the reaction, the mix of phosphorylated (product) and non-phosphorylated (substrate) peptides are passed through the microfluidic system of the Caliper LabChip® EZ Reader II, under an applied potential difference. The presence of the phosphate group on the product peptide provides a difference in mass and charge between the product peptide and the substrate peptide, resulting in a separation of the substrate and product pools in the sample. As the pools pass the LEDS within the instrument, these pools are detected and resolved as separate peaks. The ratio between these peaks therefore reflects the activity of the chemical matter at that concentration in that well, under those conditions.
The reaction was stopped by the addition of 70 ul of Stop buffer (100 mM HEPES pH 7.5, 0.015% Brij 35, 35 mM EDTA and 0.2% of Coating Reagent 3 (Caliper Lifesciences)). The plate was then read on a Caliper LabChip® EZ Reader II (protocol settings: −1.9 psi, upstream voltage −700, downstream Voltage −3000, post sample sip 35S).

[1] = tested on: pMAPK (Thr202/Tyr204) in MDA-MB453 cells; test: Detection of pMAPK (Thr202/Tyr204) using Alpha Elisa (pERK alphaLISA) in MDA-MB453 cells; type: cell-based; settings: Homo sapiens, MDA-MB-453, 1 hr incubation with compound
Method: MDA-MB453 cells were plated in 96-well cell culture plates at a density of 1×10^5 cells. Cells were allowed to attach, and growth media was replaced with serum free media. Compounds were added at the indicated concentrations. Following 1 hr incubation in the presence of compound, cells were collected. Cell lysates were prepared and processed according to manufacturer instruction (AlphaScreen® SureFire™ Phospho-ERK 1/2 Kit (Perkin Elmer).

Sequence of wild type FGFR-4 (P22455 22-802): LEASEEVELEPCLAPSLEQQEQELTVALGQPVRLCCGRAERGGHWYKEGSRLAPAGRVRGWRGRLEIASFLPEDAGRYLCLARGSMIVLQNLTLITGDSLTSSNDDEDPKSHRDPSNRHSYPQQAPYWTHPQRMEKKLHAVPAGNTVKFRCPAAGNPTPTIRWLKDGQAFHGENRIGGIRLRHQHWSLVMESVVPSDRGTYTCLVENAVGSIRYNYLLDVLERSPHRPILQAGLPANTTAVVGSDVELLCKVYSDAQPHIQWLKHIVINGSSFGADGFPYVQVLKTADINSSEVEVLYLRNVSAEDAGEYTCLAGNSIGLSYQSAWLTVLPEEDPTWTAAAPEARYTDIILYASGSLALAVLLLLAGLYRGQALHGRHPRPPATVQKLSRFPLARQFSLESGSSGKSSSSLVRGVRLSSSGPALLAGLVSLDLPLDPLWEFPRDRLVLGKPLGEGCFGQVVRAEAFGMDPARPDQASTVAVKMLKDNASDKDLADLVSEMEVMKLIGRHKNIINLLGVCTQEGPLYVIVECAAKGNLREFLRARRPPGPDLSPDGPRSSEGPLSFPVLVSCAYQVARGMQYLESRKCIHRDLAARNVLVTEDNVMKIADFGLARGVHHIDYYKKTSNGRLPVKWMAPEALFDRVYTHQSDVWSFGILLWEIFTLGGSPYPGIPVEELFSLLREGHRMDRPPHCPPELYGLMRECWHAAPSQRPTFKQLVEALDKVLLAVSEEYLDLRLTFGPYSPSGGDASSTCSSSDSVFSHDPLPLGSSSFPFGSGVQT

| Structure (SMILES) | IC50 (wild type FGFR-4) | IC50 [1] |
| --- | --- | --- |
| C=CC(=O)Nc1ccccc1-c1cc2ccc(-c3c(Cl)c(OC)cc(OC)c3Cl)cc2cn1 [Compound 1] | 100 to 1000 nM |  |
| C=CC(=O)Nc1ccccc1-c1ncc2cc(-c3c(Cl)c(OC)cc(OC)c3Cl)ccc2n1 [Compound 2] | 100 to 1000 nM |  |
| C=CC(=O)Nc1cccc(-c2ncc3cc(-c4c(Cl)c(OC)cc(OC)c4Cl)ccc3n2)c1 [Compound 3] | > 1000 nM |  |
| C=CC(=O)Nc1ccc(F)c(-c2cc3c(cn2)cc(-c2cc(OC)cc(OC)c2)c(=O)n3C(C)C)c1 [Compound 4] | 10 to 100 nM | 100 to 1000 nM |
| C=CC(=O)Nc1ccc(C)c(-c2ncc3cc(-c4c(Cl)c(OC)cc(OC)c4Cl)ccc3n2)c1 [Compound 5] | > 1000 nM |  |
| C=CC(=O)N(C)c1cccc(-c2ncc3cc(-c4c(Cl)c(OC)cc(OC)c4Cl)ccc3n2)c1 [Compound 6] | > 1000 nM |  |
| C=CC(=O)Nc1cccc(F)c1-c1ncc2cc(-c3c(Cl)c(OC)cc(OC)c3Cl)ccc2n1 [Compound 7] |  | 100 to 1000 nM |
| C=CC(=O)Nc1ccccc1-c1cc2c(cn1)cc(-c1cc(C(=O)NOC)ccc1Cl)c(=O)n2CC [Compound 9] | < 10 nM | 10 to 100 nM |
| C=CC(=O)Nc1ccc(F)c(-c2cc3c(cn2)cc(-c2cc(OC)cc(OC)c2F)c(=O)n3C(C)C)c1 [Compound 10] | < 10 nM | 10 to 100 nM |
| C=CC(=O)N1CCc2ccc(-c3ncc4cc(-c5c(Cl)c(OC)cc(OC)c5Cl)ccc4n3)cc21 [Compound 11] | 10 to 100 nM |  |
| C=CC(=O)Nc1ccc(F)c(-c2cc3c(cn2)cc(-c2cc(OC)cc(OC)c2Cl)c(=O)n3CC)c1 [Compound 12] | < 10 nM | < 10 nM |
| C=CC(=O)Nc1cccc(-c2ncc3cc(-c4c(Cl)c(OC)cc(OC)c4Cl)cc(OC)c3n2)c1 [Compound 13] | 100 to 1000 nM |  |
| C=CC(=O)Nc1ccccc1-c1ncc2cc(-c3c(Cl)c(OC)cc(OC)c3Cl)c(OC)cc2n1 [Compound 15] | 100 to 1000 nM |  |
| C=CC(=O)N1CCOc2ccc(-c3ncc4cc(-c5c(Cl)c(OC)cc(OC)c5Cl)ccc4n3)cc21 [Compound 16] | 10 to 100 nM |  |
| C=CC(=O)Nc1ccc(F)c(-c2cc3c(cn2)cc(-c2c(F)c(OC)cc(OC)c2F)c(=O)n3C(C)C)c1 [Compound 17] | < 10 nM | < 10 nM |
| C=CC(=O)N1CCc2cc(F)c(-c3ncc4cc(-c5c(Cl)c(OC)cc(OC)c5Cl)ccc4n3)cc21 [Compound 18] | < 10 nM | 10 to 100 nM |
| C=CC(=O)Nc1ccccc1-c1cc2c(cn1)cc(-c1c(Cl)c(OC)cc(OC)c1Cl)c(=O)n2CC [Compound 19] | < 10 nM | 10 to 100 nM |
| C=CC(=O)Nc1cccc(-c2cc3c(cn2)cc(-c2c(Cl)c(OC)cc(OC)c2Cl)c(=O)n3CC)c1 [Compound 20] | < 10 nM | < 10 nM |
| C=CC(=O)Nc1ccc(F)c(-c2cc3c(cn2)cc(-c2c(F)c(OC)cc(OC)c2Cl)c(=O)n3CC)c1 [Compound 21] | < 10 nM | < 10 nM |
| C=CC(=O)Nc1cccc(-c2cc3c(cn2)CN(c2c(Cl)c(OC)cc(OC)c2Cl)C(=O)N3CC)c1 [Compound 22] | 10 to 100 nM | 10 to 100 nM |
| C=CC(=O)Nc1ccc(F)c(-c2cc3c(cn2)cc(-c2c(Cl)c(OC)cc(OC)c2Cl)c(=O)n3C)c1 [Compound 23] | < 10 nM | 10 to 100 nM |
| C=CC(=O)N1CCOc2cc(C)c(-c3ncc4cc(-c5c(Cl)c(OC)cc(OC)c5Cl)ccc4n3)cc21 [Compound 24] | 10 to 100 nM | 10 to 100 nM |
| C=CC(=O)Nc1ccccc1-c1cc2c(cn1)cc(-c1c(Cl)c(OC)cc(OC)c1Cl)c(=O)n2C(C)C [Compound 25] | < 10 nM | 10 to 100 nM |
| C=CC(=O)N(C)c1ccccc1-c1cc2c(cn1)cc(-c1c(Cl)c(OC)cc(OC)c1Cl)c(=O)n2CC [Compound 26] | 10 to 100 nM |  |
| C=CC(=O)Nc1ccc(C)c(-c2cc3c(cn2)cc(-c2c(Cl)c(OC)cc(OC)c2Cl)c(=O)n3CC)c1 [Compound 27] | 10 to 100 nM | 10 to 100 nM |
| C=CC(=O)N1CCOc2cc(F)c(-c3ncc4cc(-c5c(Cl)c(OC)cc(OC)c5Cl)ccc4n3)cc21 [Compound 28] | < 10 nM | 10 to 100 nM |

| Structure (SMILES) | IC50 (wild type FGFR-4) | IC50 [1] |
| --- | --- | --- |
| C=CC(=O)Nc1ccc(C)c(-c2cc3c(cn2)CN(c2c(Cl)c(OC)cc(OC)c2Cl)C(=O)N3CC)c1 [Compound 29] | 10 to 100 nM |  |
| C=CC(=O)Nc1ccc(F)c(-c2ncc3cc(-c4c(Cl)c(OC)cc(OC)c4Cl)c(=O)n(CC)c3n2)c1 [Compound 30] |  | < 10 nM |
| C=CC(=O)Nc1ccc(F)c(-c2ncc3cc(-c4c(Cl)c(OC)cc(OC)c4Cl)c(=O)n(CC)c3n2)c1 [Compound 31] | 10 to 100 nM |  |
| C=CC(=O)Nc1ccc(F)c(-c2cc3c(cn2)CN(c2c(Cl)c(OC)cc(OC)c2Cl)C(=O)N3CC)c1 [Compound 32] | < 10 nM | 10 to 100 nM |
| C=CC(=O)N1CCC(C)(C)c2ccc(-c3ncc4cc(-c5c(Cl)c(OC)cc(OC)c5Cl)ccc4n3)cc21 [Compound 33] | 100 to 1000 nM |  |
| C=CC(=O)N1CC(C)(C)Oc2ccc(-c3ncc4cc(-c5c(Cl)c(OC)cc(OC)c5Cl)ccc4n3)cc21 [Compound 34] | 10 to 100 nM | 10 to 100 nM |
| C=CC(=O)N1CCc2ccc(-c3ncc4cc(-c5c(Cl)c(OC)cc(OC)c5Cl)c(=O)n(CC)c4n3)cc21 [Compound 35] |  | 10 to 100 nM |
| C=CC(=O)N1CCOc2ccc(-c3ncc4cc(-c5c(Cl)c(OC)cc(OC)c5Cl)c(OC)cc4n3)cc21 [Compound 36] | 10 to 100 nM |  |
| C=CC(=O)N1CCOc2ccc(-c3cc4c(cn3)cc(-c3c(Cl)c(OC)cc(OC)c3Cl)c(=O)n4C)cc21 [Compound 37] | < 10 nM |  |
| C=CC(=O)N1c2cc(-c3ncc4cc(-c5c(Cl)c(OC)cc(OC)c5Cl)ccc4n3)c(F)cc2OCC1C (stereo not drawn) [Compound 38] | 10 to 100 nM |  |
| C=CC(=O)Nc1ccc(F)c(-c2cc3c(cn2)cc(-c2c(Cl)c(OC)cc(OC)c2Cl)c(=O)n3C(C)C)c1 [Compound 40] | < 10 nM | < 10 nM |
| C=CC(=O)Nc1cc(F)c(F)c(-c2cc3c(cn2)cc(-c2c(Cl)c(OC)cc(OC)c2Cl)c(=O)n3CC)c1 [Compound 41] | < 10 nM |  |
| C=CC(=O)N1CC(C)(C)Oc2cc(C)c(-c3ncc4cc(-c5c(Cl)c(OC)cc(OC)c5Cl)ccc4n3)cc21 [Compound 44] | 10 to 100 nM |  |
| C=CC(=O)N1CCCc2ccc(-c3cc4c(cn3)cc(-c3c(Cl)c(OC)cc(OC)c3Cl)c(=O)n4CC)cc21 [Compound 45] | < 10 nM |  |
| C=CC(=O)Nc1ccccc1-c1ncc2cc(-c3c(Cl)c(OC)cc(OC)c3Cl)c(=O)n(C3CCCC3)c2n1 [Compound 46] | 10 to 100 nM |  |
| C=CC(=O)N1CCOc2ccc(-c3cc4c(cn3)cc(-c3c(Cl)c(OC)cc(OC)c3Cl)c(=O)n4CC)cc21 [Compound 47] | < 10 nM | 10 to 100 nM |
| C=CC(=O)N1CC(C)(C)Oc2cc(F)c(-c3ncc4cc(-c5c(Cl)c(OC)cc(OC)c5Cl)ccc4n3)cc21 [Compound 48] | 10 to 100 nM |  |
| C=CC(=O)Nc1cc(OC(C)C)cc(-c2cc3c(cn2)cc(-c2c(Cl)c(OC)cc(OC)c2Cl)c(=O)n3C)c1 [Compound 49] | 10 to 100 nM |  |
| C=CC(=O)N1CCOc2ccc(-c3cc4c(cn3)CN(c3c(Cl)c(OC)cc(OC)c3Cl)C(=O)N4CC)cc21 [Compound 50] | < 10 nM | 10 to 100 nM |
| CCn1c(=O)c(-c2c(Cl)c(OC)cc(OC)c2Cl)cc2cnc(-c3cccc(NC(=O)/C=C/CN(C)C)c3)cc21 [Compound 51] | 10 to 100 nM |  |
| C=CC(=O)N1CC(C)(C)Oc2ccc(-c3cc4c(cn3)cc(-c3c(Cl)c(OC)cc(OC)c3Cl)c(=O)n4CC)cc21 [Compound 52] |  | 10 to 100 nM |
| C=CC(=O)N1c2cc(-c3cc4c(cn3)cc(-c3c(Cl)c(OC)cc(OC)c3Cl)c(=O)n4CC)c(F)cc2OCC1C (stereo not drawn) [Compound 53] | < 10 nM | 10 to 100 nM |
| C=CC(=O)N1CCOc2ccc(-c3cc4c(cn3)cc(-c3c(Cl)c(OC)cc(OC)c3Cl)c(=O)n4C3CCCC3)cc21 [Compound 54] | 10 to 100 nM |  |
| C=CC(=O)N1CCOc2ccc(-c3ncc4cc(-c5c(Cl)c(OC)cc(OC)c5Cl)c(=O)n(C5CCCC5)c4n3)cc21 [Compound 55] | 10 to 100 nM |  |
| C=CC(=O)N1CCOc2ccc(-c3cc4c(cn3)nc(-c3c(Cl)c(OC)cc(OC)c3Cl)c(=O)n4C3CCCC3)cc21 [Compound 56] | < 10 nM |  |
